Measured values published in publication PMC10787225 (Computational and Structural Biotechnology Journal, 2023).
Entries after “also recorded” stand apart in the source; their conditions may differ. Where no end group is shown, it is not given here.

How the values were obtained:
β-wrapin AS10 [1] = conditions: cited from earlier work
From the text: We have previously observed β-hairpins in amyloid-β (Aβ), α-synuclein (αSyn), and islet amyloid polypeptide (IAPP), amyloidogenic proteins associated with AD, PD, and T2D, respectively (Fig. 2), [38], [39]. These β-hairpins are established upon binding to engineered binding proteins termed β-wrapins. β-Wrapins are selected from protein libraries based on ZAβ3, an affibody with high affinity for monomeric Aβ [37], [39], [40], [41], [42]. β-Hairpin structures of Aβ, αSyn and IAPP have been determined by NMR spectroscopy of their complexes with ZAβ3 and the β-wrapins AS69 and ...

β-wrapin AS10 [2] = test: Isothermal titration calorimetry (ITC) of peptide binding to AS10; conditions: 30 °C, 30 µM AS10 in cell, peptide titrated from syringe, 20 mM sodium phosphate, pH 7.4, 50 mM NaCl, 1:1 binding model, read-out: Affinity to AS10 (dissociation constant KD)
Procedure: ITC was performed at 30 °C using a Microcal iTC200 calorimeter (GE Healthcare). AS10 was filled into the cell at a concentration of 30 µM in 20 mM sodium phosphate, pH 7.4, 50 mM NaCl. Peptides were titrated from the syringe in approximately 10-fold higher concentrations. Heats of post-saturation injections were averaged and subtracted from each injection to correct for heats of dilution and mixing. Dissociation constants were obtained from a nonlinear least-squares fit to a 1:1 binding model using MicroCal Origin.

[3] = Thioflavin T (ThT) aggregation assay; type: physicochemical
Procedure: All ThT aggregation assays were done in Greiner 96-well half-area, clear bottom, low-binding plates. The measurements themselves were done in a BMG CLARIOstar plate reader at 37 °C and 300 rpm shaking in orbital mode with one glass bead (0.75–1 mm, Roth) per well. Wells with samples were always surrounded by wells filled with liquid, either other samples or 150 μl water, to counter potential artefacts due to evaporation. […] Final concentrations of 25 µM ThT and 0.04% sodium azide (NaN3) were added. The plate was sealed with sealing tape and put into the plate reader, heated to 37 °C, and ThT fluorescence was read in 1000 cycles of 300 s each using bottom optics with excitation at 448 nm (10 nm bandwidth) and emission at 482 nm (10 nm bandwidth). […] Samples contained 40 µM ThT and 0.04% NaN3.
Fig. 4 Test set of eight protein segments. (A) List of the investigated peptides. Underlined stretches in the peptide sequences correspond to the predicted amyloidogenic β-hairpins. A peptide was considered ‘soluble’ when no visible precipitation occurred upon dissolution of the lyophilized peptide in 20 mM NaPi, pH 7.4, 50 mM NaCl, to a final concentration of 20 µM. […] (B) Conformations of investigated segments (red) in the context of their source proteins.

[4] = Atomic force microscopy (AFM) of samples at the end of ThT aggregation assays; type: physicochemical
Procedure: (§1) For AFM imaging, 2 μl samples were taken out of the wells at the end of the ThT aggregation assays, put onto a freshly cleaved muscovite mica surface and dried during incubation for 10 min under the clean bench. Subsequently, the samples were washed with 100 μl ddH2O in three steps and dried with a stream of N2 gas. Imaging was performed in intermittent contact mode (AC mode) in a JPK NanoWizard 3 atomic force microscope using a silicon cantilever with silicon tip (OMCL-AC160TS-R3, Olympus) with a typical tip radius of 9 ± 2 nm, a force constant of 26 N/m and resonance frequency around 300 kHz. The images were processed using JPK DP Data Processing Software (version spm-5.0.84).

PAP(248−286) = test: ThT aggregation assay and AFM of PAP(248−286) in presence of added peptide; type: biochemical, human
Procedure: (§2) All ThT aggregation assays were done in Greiner 96-well half-area, clear bottom, low-binding plates. The measurements themselves were done in a BMG CLARIOstar plate reader at 37 °C and 300 rpm shaking in orbital mode with one glass bead (0.75–1 mm, Roth) per well. Wells with samples were always surrounded by wells filled with liquid, either other samples or 150 μl water, to counter potential artefacts due to evaporation. […] Final concentrations of 25 µM ThT and 0.04% sodium azide (NaN3) were added. The plate was sealed with sealing tape and put into the plate reader, heated to 37 °C, and ThT fluorescence was read in 1000 cycles of 300 s each using bottom optics with excitation at 448 nm (10 nm bandwidth) and emission at 482 nm (10 nm bandwidth). […] PAP(248−286) and SEM1(86−107) were kept at constant concentrations of 500 and 300 µM, respectively. […] Samples contained 40 µM ThT and 0.04% NaN3.
as §1

SEM1(86−107) = test: ThT aggregation assay and AFM of SEM1(86−107) in presence of added peptide; type: biochemical, human
Procedure: as §2, §1

Row | Substance | Affinity for β-wrapin AS10 (β-wrapin AS10 [1]) | Kd (β-wrapin AS10 [2]) [µM] | ThT fluorescence time course ([3]; 20–25 µM peptide, 20 mM NaPi, pH 7.4, 50 mM NaCl, 37 °C, 25 µM ThT, triplicate) | Peptide concentration sufficient for amyloid formation ([3]; ThT assay, Fig. 5D (550 µM, 20 mM NaPi, pH 7.4, 50 mM NaCl)) [mM] | ThT ([3]; peptide 20–550 µM, up to 85 h, 20 mM NaPi, pH 7.4, 50 mM NaCl, 37 °C, 300 rpm, glass bead, 25 µM ThT, triplicate) | ThT fluorescence of peptide alone ([3]; peptide alone 25–100 µM (up to 100 µM), 50 mM Tris, pH 8.5, 37 °C, 40 µM ThT) | ThT fluorescence time course ([3]; peptide increased to 500–550 µM, 20 mM NaPi, pH 7.4, 50 mM NaCl, 37 °C, 25 µM ThT, triplicate) | AFM aggregate morphology ([4]; end of ThT aggregation assay in 20 mM NaPi, pH 7.4, 50 mM NaCl, dried on mica) | AFM aggregate morphology of individual peptide ([4]; end of ThT assay at moderate peptide concentrations without ThT fluorescence, 50 mM Tris, pH 8.5) | Effect of added peptide on ThT time trace of PAP(248−286) (PAP(248−286); 500 µM PAP(248−286), added peptide 25–100 µM, 50 mM Tris, pH 8.5, 37 °C, 40 µM ThT) | AFM morphology after co-incubation with PAP(248−286) (PAP(248−286); AFM at end of aggregation assay, 500 µM PAP(248−286) with PAP(185−208)) | Effect of added peptide on ThT time trace of SEM1(86−107) (SEM1(86−107); 300 µM SEM1(86−107), added peptide 25–100 µM, 50 mM Tris, pH 8.5, 37 °C, 40 µM ThT) | AFM morphology after co-incubation with SEM1(86−107) (SEM1(86−107); AFM at end of aggregation assay, 300 µM SEM1(86−107) with PAP(185−208))
1 | Aβ: amyloid-β, amyloidogenic protein associated with AD | sub-micromolar |  |  |  |  |  |  |  |  |  |  |  | 
2 | IAPP: islet amyloid polypeptide, amyloidogenic protein associated with T2D (KCNTATCATQRLANFLVHSSNNFGAILSSTNVGSNTY; Islet amyloid polypeptide; UniProt P10997 34-70, looked up) | sub-micromolar |  |  |  |  |  |  |  |  |  |  |  | 
3 | KDFIATLGKLSGLHGQDLFGIWSK [PAP(185−208)] |  | 39 ± 5 | no increase in fluorescence intensity was detected | > 0.5 | + | did not exhibit ThT fluorescence; also recorded: do not exhibit ThT fluorescene | exhibited ThT fluorescence | fibrillar aggregates confirming amyloid formation were detected | aggregates of amorphous shape | ThT time traces featuring a lag-time and a phase of rapid growth indicative of amyloid formation | shift to fibrillar aggregate morphology | ThT time traces featuring a lag-time and a phase of rapid growth indicative of amyloid formation | shift to fibrillar aggregate morphology
